Assay results published in PubChem BioAssay AID1918996 (Molecular Pharmacology Branch, DTP, NCI, 2023).
pIC50: −log10 of the molar value.

Test system: 349418-098-R-PDC complex spheroid growth
Assay: Anticancer human tumor 349418-098-R-PDC patient-derived lung adenocarcinoma cell line growth inhibition [AhR]
Conditions: for pIC50: curve of first compound; for viability, T/C: stronger effect = lower value
Procedure, shortened: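 Complex tumor spheroids co-cultured with HUVEC and human MSC stroma; AhR antagonists tested in combination with standard-of-care and investigational agents. Top concentration at or near clinical Cmax (else 10 microM), half-log dilutions; growth expressed as percent test/control.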

[1] = second compound 0.1 µM, first compound 0.0316 µM
[2] = second compound 0.1 µM, first compound 0.1 µM
[3] = second compound 0.1 µM, first compound 0.316 µM
[4] = second compound 0.1 µM, first compound 1 µM
[5] = second compound 0.1 µM, first compound 3.16 µM
[6] = second compound 0.1 µM, first compound 10 µM
[7] = second compound 0.316 µM, first compound 0.0316 µM
[8] = second compound 0.316 µM, first compound 0.1 µM
[9] = second compound 0.316 µM, first compound 0.316 µM
[10] = second compound 0.316 µM, first compound 1 µM
[11] = second compound 0.316 µM, first compound 3.16 µM
[12] = second compound 0.316 µM, first compound 10 µM
[13] = second compound 1 µM, first compound 0.0316 µM
[14] = second compound 1 µM, first compound 0.1 µM
[15] = second compound 1 µM, first compound 0.316 µM
[16] = second compound 1 µM, first compound 1 µM
[17] = second compound 1 µM, first compound 3.16 µM
[18] = second compound 1 µM, first compound 10 µM
[19] = second compound 3.16 µM, first compound 0.0316 µM
[20] = second compound 3.16 µM, first compound 0.1 µM
[21] = second compound 3.16 µM, first compound 0.316 µM
[22] = second compound 3.16 µM, first compound 1 µM
[23] = second compound 3.16 µM, first compound 3.16 µM
[24] = second compound 3.16 µM, first compound 10 µM
[25] = second compound 10 µM, first compound 0.0316 µM
[26] = second compound 10 µM, first compound 0.1 µM
[27] = second compound 10 µM, first compound 0.316 µM
[28] = second compound 10 µM, first compound 1 µM
[29] = second compound 10 µM, first compound 3.16 µM
[30] = second compound 10 µM, first compound 10 µM
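Note: spheroids exposed to agents for seven days before luminescence viability read.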
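Throughout, for viability, T/C: spheroids also contain HUVEC endothelial cells and human MSC stroma.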

SMILES: CC(C)CC(NC(=O)C(Cc1ccccc1)NC(=O)c1cnccn1)B(O)O (stereo not given) + Cc1cncc(-c2nc(NCCc3c[nH]c4ccccc34)c3ncn(C(C)C)c3n2)c1
- pIC50 (second compound 0.1 µM): 8.85
- pIC50 (second compound 0.316 µM): 8.89
- pIC50 (second compound 1 µM): 8.97
- pIC50 (second compound 3.16 µM): > 9.02
- pIC50 (second compound 10 µM): > 9.02
- viability, T/C (second compound 0.1 µM, first compound 0.000949 µM): 70.6%
- viability, T/C (second compound 0.1 µM, first compound 0.003 µM): 11.2%
- viability, T/C (second compound 0.1 µM, first compound 0.00949 µM): 1.67%
- viability, T/C (second compound 0.1 µM, first compound 0.03 µM): 0.88%
- viability, T/C (second compound 0.1 µM, first compound 0.0949 µM): 0.78%
- viability, T/C (second compound 0.1 µM, first compound 0.3 µM): 0.75%
- viability, T/C (second compound 0.316 µM, first compound 0.000949 µM): 64.6%
- viability, T/C (second compound 0.316 µM, first compound 0.003 µM): 8.44%
- viability, T/C (second compound 0.316 µM, first compound 0.00949 µM): 1.59%
- viability, T/C (second compound 0.316 µM, first compound 0.03 µM): 0.9%
- viability, T/C (second compound 0.316 µM, first compound 0.0949 µM): 0.92%
- viability, T/C (second compound 0.316 µM, first compound 0.3 µM): 0.62%
- viability, T/C (second compound 1 µM, first compound 0.000949 µM): 54.1%
- viability, T/C (second compound 1 µM, first compound 0.003 µM): 9.85%
- viability, T/C (second compound 1 µM, first compound 0.00949 µM): 1.7%
- viability, T/C (second compound 1 µM, first compound 0.03 µM): 0.85%
- viability, T/C (second compound 1 µM, first compound 0.0949 µM): 0.77%
- viability, T/C (second compound 1 µM, first compound 0.3 µM): 1.06%
- viability, T/C (second compound 3.16 µM, first compound 0.000949 µM): 20.6%
- viability, T/C (second compound 3.16 µM, first compound 0.003 µM): 5.89%
- viability, T/C (second compound 3.16 µM, first compound 0.00949 µM): 1.01%
- viability, T/C (second compound 3.16 µM, first compound 0.03 µM): 0.57%
- viability, T/C (second compound 3.16 µM, first compound 0.0949 µM): 0.58%
- viability, T/C (second compound 3.16 µM, first compound 0.3 µM): 0.62%
- viability, T/C (second compound 10 µM, first compound 0.000949 µM): 2.07%
- viability, T/C (second compound 10 µM, first compound 0.003 µM): 1.16%
- viability, T/C (second compound 10 µM, first compound 0.00949 µM): 0.23%
- viability, T/C (second compound 10 µM, first compound 0.03 µM): 0.14%
- viability, T/C (second compound 10 µM, first compound 0.0949 µM): 0.11%
- viability, T/C (second compound 10 µM, first compound 0.3 µM): 0.15%

SMILES: COc1cc(Nc2ncc3c(n2)-c2ccc(Cl)cc2C(c2c(F)cccc2OC)=NC3)ccc1C(=O)O + Cc1cncc(-c2nc(NCCc3c[nH]c4ccccc34)c3ncn(C(C)C)c3n2)c1
- pIC50 (second compound 0.1 µM): 6.71
- pIC50 (second compound 0.316 µM): 6.62
- pIC50 (second compound 1 µM): 6.57
- pIC50 (second compound 3.16 µM): > 7.50
- pIC50 (second compound 10 µM): > 7.50
- viability, T/C [1]: 68.8%
- viability, T/C [2]: 58.2%
- viability, T/C [3]: 42.4%
- viability, T/C [4]: 40.8%
- viability, T/C [5]: 36.3%
- viability, T/C [6]: 33.1%
- viability, T/C [7]: 72.6%
- viability, T/C [8]: 68.6%
- viability, T/C [9]: 44.4%
- viability, T/C [10]: 47.8%
- viability, T/C [11]: 41.1%
- viability, T/C [12]: 43.9%
- viability, T/C [13]: 67.7%
- viability, T/C [14]: 57.3%
- viability, T/C [15]: 46.7%
- viability, T/C [16]: 48.8%
- viability, T/C [17]: 40.3%
- viability, T/C [18]: 44.8%
- viability, T/C [19]: 19.7%
- viability, T/C [20]: 20%
- viability, T/C [21]: 14.1%
- viability, T/C [22]: 12.7%
- viability, T/C [23]: 14.7%
- viability, T/C [24]: 17.9%
- viability, T/C [25]: 3.34%
- viability, T/C [26]: 2.89%
- viability, T/C [27]: 2.53%
- viability, T/C [28]: 2.17%
- viability, T/C [29]: 2.59%
- viability, T/C [30]: 3.53%

SMILES: NS(=O)(=O)OCC1CC(n2ccc3c(NC4CCc5ccccc54)ncnc32)CC1O (stereo not given) + Cc1cncc(-c2nc(NCCc3c[nH]c4ccccc34)c3ncn(C(C)C)c3n2)c1
- pIC50 (second compound 0.1 µM): 6.72
- pIC50 (second compound 0.316 µM): 6.79
- pIC50 (second compound 1 µM): 6.85
- pIC50 (second compound 3.16 µM): > 7.50
- pIC50 (second compound 10 µM): > 7.50
- viability, T/C [1]: 101%
- viability, T/C [2]: 69.6%
- viability, T/C [3]: 35.1%
- viability, T/C [4]: 14.4%
- viability, T/C [5]: 9.84%
- viability, T/C [6]: 4.65%
- viability, T/C [7]: 89.1%
- viability, T/C [8]: 71.6%
- viability, T/C [9]: 19%
- viability, T/C [10]: 12.2%
- viability, T/C [11]: 6.13%
- viability, T/C [12]: 4.07%
- viability, T/C [13]: 86.2%
- viability, T/C [14]: 63.3%
- viability, T/C [15]: 19.2%
- viability, T/C [16]: 12.1%
- viability, T/C [17]: 6.14%
- viability, T/C [18]: 4.69%
- viability, T/C [19]: 28.4%
- viability, T/C [20]: 26.2%
- viability, T/C [21]: 18.7%
- viability, T/C [22]: 7.99%
- viability, T/C [23]: 3.97%
- viability, T/C [24]: 3.43%
- viability, T/C [25]: 2.2%
- viability, T/C [26]: 1.97%
- viability, T/C [27]: 1.34%
- viability, T/C [28]: 0.88%
- viability, T/C [29]: 1.03%
- viability, T/C [30]: 0.56%

SMILES: O=C(C=Cc1cccc(S(=O)(=O)Nc2ccccc2)c1)NO + Cc1cncc(-c2nc(NCCc3c[nH]c4ccccc34)c3ncn(C(C)C)c3n2)c1
- pIC50 (second compound 0.1 µM): 6.17
- pIC50 (second compound 0.316 µM): 6.28
- pIC50 (second compound 1 µM): 6.22
- pIC50 (second compound 3.16 µM): > 7.50
- pIC50 (second compound 10 µM): > 7.50
- viability, T/C [1]: 90.6%
- viability, T/C [2]: 79.1%
- viability, T/C [3]: 67.8%
- viability, T/C [4]: 43.2%
- viability, T/C [5]: 13.2%
- viability, T/C [6]: 1.82%
- viability, T/C [7]: 85.2%
- viability, T/C [8]: 68.9%
- viability, T/C [9]: 59.3%
- viability, T/C [10]: 43.5%
- viability, T/C [11]: 11.3%
- viability, T/C [12]: 1.83%
- viability, T/C [13]: 76.4%
- viability, T/C [14]: 75.8%
- viability, T/C [15]: 61.1%
- viability, T/C [16]: 41.3%
- viability, T/C [17]: 10.3%
- viability, T/C [18]: 1.94%
- viability, T/C [19]: 30.8%
- viability, T/C [20]: 34.8%
- viability, T/C [21]: 37.9%
- viability, T/C [22]: 22.7%
- viability, T/C [23]: 7.91%
- viability, T/C [24]: 1.33%
- viability, T/C [25]: 3.17%
- viability, T/C [26]: 3.68%
- viability, T/C [27]: 2.97%
- viability, T/C [28]: 1.98%
- viability, T/C [29]: 1.53%
- viability, T/C [30]: 0.75%
